Assay results published in patent publication US9872849B2, “Diterpenoid membranolide compounds having anti-leishmania activity and uses thereof” (UNIVERSITY OF SOUTH FLORIDA, priority 2014, dated 2018).
Read-outs that look alike come from different tables or passages of the source.

Assays:
Vero cells = assay: Cytotoxicity against Vero cells; format: cell-based; details: for IC50: cytotoxicity, read-out: IC50 Values Vero Cell
Protocol: (§1) Leishmaniasis efficacy was tested against L. donovani axenic amastigotes (amphotericin B, positive control=0.38 μM). Cytotoxicity was verified against Vero cells.

[1] = system: L. donovani axenic amastigotes; assay: microbe, parasite or virus in culture; format: cell-based, Leishmania donovani
Protocol: as §1

[2] = axenic amastigotes, read-out: IC50 Values Leishmania donovani

aplysulphurin
IC50 (Vero cells): 47.7 µM | selectivity index (cytotoxicity/activity) [1]: high selectivity index | IC50 [1, 2]: 1.56 µM

CC(=O)O[C@@H]1OC2OC(=O)[C@H](C)C3=C([C@@]4(C)CCCC(C)(C)C4)CCC1C32 (stereo partly drawn) [Tetrahydroaplysulphurin, tetrahydroaplysulphurin]
IC50 (Vero cells): 53.3 µM | IC50 [1, 2]: 17.3 µM

membranolide G
cytotoxicity (in words) (Vero cells): lacking significant cytotoxicity | IC50 (Vero cells): > 53.1 µM | activity against L. donovani (in words) [1]: potent activity | IC50 [1, 2]: 0.82 µM

CO[C@@H]1O[C@@H](OC)c2c1ccc([C@@]1(C)CCCC(C)(C)C1)c2[C@@H](C)C(=O)O [Membranolide D, membranolide D]
IC50 (Vero cells; Chlorocebus sabaeus): 40.7 µM | IC50 ([1]; Leishmania donovani, axenic amastigotes): > 53.1 µM

CO[C@@H]1O[C@@H](OC)c2c1ccc([C@@]1(C)CCCC(C)(C)C1)c2[C@@H](C)C(=O)O [Membranolide C, membranolide C]
IC50 (Vero cells): 40.7 µM | IC50 [1, 2]: > 53.1 µM

membranolide F
IC50 (Vero cells): 42.4 µM | IC50 [1, 2]: 26.7 µM

CO[C@H]1OC(=O)[C@H](C)c2c([C@@]3(C)CCCC(C)(C)C3)ccc(C=O)c21 [Membranolide B, membranolide B]
IC50 (Vero cells): 44.3 µM | IC50 [1, 2]: 58.1 µM

C[C@@H]1[C@H](O)[C@@H](C)/C=C/C=C/C=C/C=C/C=C/C=C/C=C/[C@H](O[C@@H]2O[C@H](C)[C@@H](O)[C@H](N)[C@@H]2O)C[C@@H]2O[C@](O)(C[C@@H](O)C[C@@H](O)[C@H](O)CC[C@@H](O)C[C@@H](O)CC(=O)O[C@H]1C)C[C@H](O)[C@H]2C(=O)O [amphotericin B, reference compound]
IC50 [1, 2]: 0.38 µM

membranolide H
cytotoxicity (in words) (Vero cells): lacking significant cytotoxicity | IC50 (Vero cells): > 53.1 µM | activity against L. donovani (in words) [1]: potent activity | IC50 [1, 2]: 1.14 µM

membranolide A
IC50 (Vero cells): > 58.1 µM | IC50 Values Leishmania donovani ([1]; axenic amastigotes): Inactive
